Converted amounts (≈) assume the structure as drawn. Read-outs that look alike come from different tables or passages of the source. Values belong to the molecule of their own block, whether it stands above or below them.
Legend:
[1] = system: RKO; assay: Solid tumor cell growth inhibition, MTT, 72 h; format: cell-based; conditions: Homo sapiens
Method: (§1) 6000 well-growing human solid tumor cells were obtained and inoculated into wells of a 96-well cell culture plate. The culture medium was DMEM High Glucose cell culture medium containing 10% fetal bovine serum. The plate was placed in a carbon dioxide cell incubator (5% CO2) at 37° C. and incubated for 24 hours. After added with 1-oxo/acylated-14-acylated oridonin derivatives of different concentration and mixed uniformly, the plate was placed in a carbon dioxide cell incubator (5% CO2) at 37° C. and incubated for 72 hours. Then the viable cell concentration was determined by MTT method.

[2] = system: MG-63; assay: Solid tumor cell growth inhibition, MTT, 72 h; format: cell-based; conditions: Homo sapiens
Method: as §1

[3] = system: A549; assay: Solid tumor cell growth inhibition, MTT, 72 h; format: cell-based; conditions: Homo sapiens
Method: as §1

[4] = system: PC-3; assay: Solid tumor cell growth inhibition, MTT, 72 h; format: cell-based; conditions: Homo sapiens
Method: as §1

[5] = system: SK-OV-3; assay: Solid tumor cell growth inhibition, MTT, 72 h; format: cell-based; conditions: Homo sapiens; for IC50: read-out: IC50 SK-OV-3; for IC90: read-out: IC90 SK-OV-3
Method: as §1

[6] = system: Hep G2; assay: Solid tumor cell growth inhibition, MTT, 72 h; format: cell-based; conditions: Homo sapiens, HepG2
Method: as §1

[7] = system: Becap-37; assay: Solid tumor cell growth inhibition, MTT, 72 h; format: cell-based; conditions: Homo sapiens
Method: as §1

[8] = system: CaEs-17; assay: Solid tumor cell growth inhibition, MTT, 72 h; format: cell-based; conditions: Homo sapiens, CaEs17
Method: as §1

[9] = system: PANC-1; assay: Solid tumor cell growth inhibition, MTT, 72 h; format: cell-based; conditions: Homo sapiens
Method: as §1

[10] = system: U87-MG; assay: Solid tumor cell growth inhibition, MTT, 72 h; format: cell-based; conditions: Homo sapiens, U-87 MG
Method: as §1

[11] = system: Jurkat; assay: Leukemia cell growth inhibition, MTT, 72 h; format: cell-based, human; conditions: Homo sapiens, Jurkat; 72 h, MTT
Source text: (§2) Leukemia cell lines: leukemia cell lines: K562/adr (drug-resistant, chronic myeloid leukemia, CML), NB4 (acute promyelocytic leukemia, AML), Kasumi-1 (acute myeloid leukemia M2 type, AML-M2), Jurkat (acute lymphoblastic leukemia, ALL), all of which were donated by Cancer Research Institute of Zhejiang University, China; and H9 (acute lymphoblastic leukemia, ALL), which was purchased from China Center for Type Culture Collection.
(§3) 6000 well-growing leukemia cells were obtained and inoculated into wells of a 96-well cell culture plate. […] On the next day, the 1-oxo/acylated-14-acylated oridonin derivatives of different concentrations were added and mixed uniformly. The plate was placed in a carbon dioxide cell incubator (5% CO2) at 37° C. and was incubated for 72 hours. Then the viable cell concentration was determined by MTT method.

[12] = system: H9; assay: Leukemia cell growth inhibition, MTT, 72 h; format: cell-based, human; conditions: for IC50 / IC90: Homo sapiens, H9, 72 h, MTT; for anti-H9 cell line activity increased: as compared with oridonin
Source text: as §2, §3

[13] = system: NB4; assay: Leukemia cell growth inhibition, MTT, 72 h; format: cell-based, human; conditions: for IC50 / IC90: Homo sapiens, NB-4, 72 h, MTT; for anti-NB4 cell line activity increased: as compared with oridonin
Source text: as §2, §3

[14] = system: RPMI 8226; assay: Multiple myeloma cell growth inhibition, MTT, 72 h; format: cell-based; conditions: Homo sapiens
Method: Multiple myeloma cell lines: RPMI8226 (multiple myeloma), purchased from Fuxiang Bio-tech Co. Ltd., Shanghai, China.
as §3, with “well-growing” for “well-growing leukemia”, “and” for “and was”

[15] = system: Hep-2; assay: Solid tumor cell growth inhibition, MTT, 72 h; format: cell-based, human; conditions: for IC50 / IC90: Homo sapiens, HEp-2, 72 h, MTT
Method: as §1

[16] = system: Hela; assay: Solid tumor cell growth inhibition, MTT, 72 h; format: cell-based, human; conditions: for IC50 / IC90: Homo sapiens, HeLa, 72 h, MTT
Method: as §1

[17] = system: MGC-803; assay: Solid tumor cell growth inhibition, MTT, 72 h; format: cell-based, human; conditions: for IC50 / IC90: Homo sapiens, MGC-803, 72 h, MTT
Method: as §1

[18] = system: CNE; assay: Solid tumor cell growth inhibition, MTT, 72 h; format: cell-based, human; conditions: for IC50 / IC90: Homo sapiens, CNE, 72 h, MTT
Method: as §1

[19] = system: K562/ADR; assay: Leukemia cell growth inhibition, MTT, 72 h; format: cell-based; conditions: Homo sapiens
Source text: as §2, §3

[20] = system: Kasumi-1; assay: Leukemia cell growth inhibition, MTT, 72 h; format: cell-based; conditions: Homo sapiens
Source text: as §2, §3

SMILES: C=C1C(=O)[C@]23[C@H](OC(=O)c4ccc(C)cc4)[C@H]1CC[C@H]2[C@@]12CO[C@@]3(O)[C@@H](O)[C@@H]1C(C)(C)CCC2OC(C)=O (stereo partly shown) [BS-OR-090]
IC50 [1]: 0.35 µg/mL (≈ 0.667 µM)
IC90 [1]: 0.88 µg/mL (≈ 1.68 µM)
IC50 [2]: 0.36 µg/mL (≈ 0.686 µM)
IC90 [2]: 0.92 µg/mL (≈ 1.75 µM)
IC50 [3]: 1.82 µg/mL (≈ 3.47 µM)
IC90 [3]: 6.27 µg/mL (≈ 12 µM)
IC50 [4]: 1.35 µg/mL (≈ 2.57 µM)
IC90 [4]: 5.37 µg/mL (≈ 10.2 µM)
IC50 ([5]; SK-OV-3, 72 h): 1.35 µg/mL (≈ 2.57 µM)
IC90 ([5]; SK-OV-3, 72 h): 5.37 µg/mL (≈ 10.2 µM)
IC50 [6]: 0.74 µg/mL (≈ 1.41 µM)
IC90 [6]: 7.09 µg/mL (≈ 13.5 µM)
IC50 [7]: 0.99 µg/mL (≈ 1.89 µM)
IC90 [7]: 3.01 µg/mL (≈ 5.74 µM)
IC50 [8]: 0.9 µg/mL (≈ 1.72 µM)
IC90 [8]: 3.65 µg/mL (≈ 6.96 µM)
IC50 [9]: 1.31 µg/mL (≈ 2.5 µM)
IC90 [9]: 4.41 µg/mL (≈ 8.41 µM)
IC50 [10]: 0.51 µg/mL (≈ 0.972 µM)
IC90 [10]: 1.67 µg/mL (≈ 3.18 µM)
IC50 [11]: 0.4 µg/mL (≈ 0.762 µM)
IC90 [11]: 2.62 µg/mL (≈ 4.99 µM)
IC50 [12]: 0.06 µg/mL (≈ 0.114 µM)
IC90 [12]: 0.37 µg/mL (≈ 0.705 µM)
anti-H9 cell line activity increased [12]: 22 fold
IC50 [13]: 0.05 µg/mL (≈ 0.0953 µM)
IC90 [13]: 0.94 µg/mL (≈ 1.79 µM)
anti-NB4 cell line activity increased [13]: 15 fold
IC50 [14]: 0.2 µg/mL (≈ 0.381 µM)
IC90 [14]: 1.61 µg/mL (≈ 3.07 µM)
IC50 [15]: 0.96 µg/mL (≈ 1.83 µM)
IC90 [15]: 5.71 µg/mL (≈ 10.9 µM)
anti-Hep-2 activity increased ([15]; in comparison with oridonin): ~5 fold
IC50 [16]: 0.96 µg/mL (≈ 1.83 µM)
IC90 [16]: 3.67 µg/mL (≈ 7 µM)
anti-Hela activity increased ([16]; in comparison with oridonin): more than 5 fold
IC50 [17]: 0.52 µg/mL (≈ 0.991 µM)
IC90 [17]: 6.3 µg/mL (≈ 12 µM)
anti-MGC-803 activity increased ([17]; in comparison with oridonin): ~10 fold
IC50 [18]: 0.98 µg/mL (≈ 1.87 µM)
IC90 [18]: 4.59 µg/mL (≈ 8.75 µM)
anti-CNE activity increased ([18]; in comparison with oridonin): ~6 fold
IC50 [19]: 0.36 µg/mL (≈ 0.686 µM)
IC90 [19]: 1.48 µg/mL (≈ 2.82 µM)
IC50 [20]: 0.37 µg/mL (≈ 0.705 µM)
IC90 [20]: 1.3 µg/mL (≈ 2.48 µM)

IC50 [1]: 0.41 µg/mL (≈ 0.752 µM)
IC90 [1]: 0.92 µg/mL (≈ 1.69 µM)
IC50 [2]: 0.45 µg/mL (≈ 0.826 µM)
IC90 [2]: 2.31 µg/mL (≈ 4.24 µM)
IC50 [3]: 1.78 µg/mL (≈ 3.27 µM)
IC90 [3]: 6.68 µg/mL (≈ 12.3 µM)
IC50 [4]: 1.6 µg/mL (≈ 2.94 µM)
IC90 [4]: 5.12 µg/mL (≈ 9.39 µM)
IC50 ([5]; SK-OV-3, 72 h, MTT): 1.6 µg/mL (≈ 2.94 µM)
IC90 ([5]; SK-OV-3, 72 h, MTT): 5.12 µg/mL (≈ 9.39 µM)
IC50 [6]: 0.96 µg/mL (≈ 1.76 µM)
IC90 [6]: 7.13 µg/mL (≈ 13.1 µM)
IC50 [7]: 1.1 µg/mL (≈ 2.02 µM)
IC90 [7]: 1.99 µg/mL (≈ 3.65 µM)
IC50 [8]: 0.86 µg/mL (≈ 1.58 µM)
IC90 [8]: 5.21 µg/mL (≈ 9.56 µM)
IC50 [9]: 1.69 µg/mL (≈ 3.1 µM)
IC90 [9]: 9.36 µg/mL (≈ 17.2 µM)
IC50 [10]: 0.56 µg/mL (≈ 1.03 µM)
IC90 [10]: 1.89 µg/mL (≈ 3.47 µM)
IC50 [11]: 0.44 µg/mL (≈ 0.807 µM)
IC90 [11]: 3.03 µg/mL (≈ 5.56 µM)
IC50 [12]: 0.06 µg/mL (≈ 0.11 µM)
IC90 [12]: 0.33 µg/mL (≈ 0.605 µM)
IC50 [13]: 0.05 µg/mL (≈ 0.0917 µM)
IC90 [13]: 0.47 µg/mL (≈ 0.862 µM)
IC50 [14]: 0.2 µg/mL (≈ 0.367 µM)
IC90 [14]: 1.55 µg/mL (≈ 2.84 µM)
IC50 [15]: 1.42 µg/mL (≈ 2.61 µM)
IC90 [15]: 6.91 µg/mL (≈ 12.7 µM)
IC50 [16]: 1.02 µg/mL (≈ 1.87 µM)
IC90 [16]: 3.45 µg/mL (≈ 6.33 µM)
IC50 [17]: 0.79 µg/mL (≈ 1.45 µM)
IC90 [17]: 6.73 µg/mL (≈ 12.3 µM)
IC50 [18]: 1.31 µg/mL (≈ 2.4 µM)
IC90 [18]: 5.02 µg/mL (≈ 9.21 µM)
IC50 [19]: 0.37 µg/mL (≈ 0.679 µM)
IC90 [19]: 1.57 µg/mL (≈ 2.88 µM)
IC50 [20]: 0.41 µg/mL (≈ 0.752 µM)
IC90 [20]: 1.31 µg/mL (≈ 2.4 µM)
SMILES: C=C1C(=O)[C@]23[C@H](OC(=O)c4ccc(Cl)cc4)[C@H]1CC[C@H]2[C@@]12CO[C@@]3(O)[C@@H](O)[C@@H]1C(C)(C)CC[C@@H]2OC(C)=O [BS-OR-093]
anti-H9 cell line activity increased [12]: 22 fold
anti-NB4 cell line activity increased [13]: 15 fold

Reference: patent US9902736B2, “1-oxo/acylation-14-acylated oridonin derivative, preparation method therefor and application thereof” (HANGZHOU BENSHENG PHARMACEUTICAL CO., LTD., priority 2012, dated 2018)
